Where a name gives a salt, the structure may show the parent alone.
Columns and labels:
human mPGES-1 = human mPGES-1 (Homo sapiens (Human), UniProt O14684); test: mPGES-1 inhibiting activity (microsome fractions, PGE2 by HTRF); assay type: biochemical; conditions: microsomes from CHO-K1 cells transfected with human mPGES-1; PGH2 1 μM, 4° C., 60 seconds; read-out: mPGES-1 Inhibition IC50
Outline: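 PGE2 formation read by HTRF after 60 s at 4 °C with 1 μM PGH2 substrate, following 20 min compound preincubation (1% DMSO) with human mPGES-1 microsomes from transfected CHO-K1 cells. Buffer: potassium phosphate, reduced glutathione, pH 7.4; IC50 from activity relative to enzyme-free blank.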

A549 cells = test: Inhibition of PGE2 production in A549 cell (IL-1β stimulated); assay type: cell-based, human; conditions: Homo sapiens, A549, 24 h, IL-1β 5 ng/well, PGE2 in culture medium
Outline: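 A549 cells preincubated 60 min with compound in RPMI/3% FBS (final DMSO 0.10), then stimulated with IL-1β (5 ng/well) for 24 h at 37 °C. PGE2 measured by HTRF and PGF2α by EIA in medium; IC50 from inhibition relative to stimulated minus unstimulated production.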

human mPGES-1, sequence (O14684 whole entry): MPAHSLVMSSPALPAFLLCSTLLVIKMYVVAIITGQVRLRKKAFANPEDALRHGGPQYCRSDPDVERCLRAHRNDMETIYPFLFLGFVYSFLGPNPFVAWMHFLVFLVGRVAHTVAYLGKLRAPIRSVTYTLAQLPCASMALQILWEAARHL

Structure (SMILES): COCc1nc2c(C(=O)Nc3cccc(C#N)c3C)cc(NC(=O)c3ccccc3C(F)(F)F)cc2[nH]1 [Example 41, N-(3-Cyano-2-methylphenyl)-2-(methoxymethyl)-6-({[2-(trifluoromethyl)phenyl]carbonyl}amino)-1H-benzimidazole-4-carboxamide]
- IC50 (human mPGES-1): 52.5 nM
- IC50 (A549 cells): 145 nM

Structure (SMILES): COCc1nc2c(C(=O)Nc3cccc(Cl)c3C)cc(NC(=O)c3cccc(F)c3Cl)cc2[nH]1 [Example 100, 6-{[(2-Chloro-3-fluorophenyl)carbonyl]amino}-N-(3-chloro-2-methylphenyl)-2-(methoxymethyl)-1H-benzimidazole-4-carboxamide hydrochloride]
- IC50 (human mPGES-1): 33.3 nM
- IC50 (A549 cells): 122 nM

Structure (SMILES): COCc1nc2c(C(=O)Nc3cccc(Cl)c3C)cc(NC(=O)c3cc(Cl)ccc3Cl)cc2[nH]1 [Example 99, N-(3-Chloro-2-methylphenyl)-6-{[(2,5-dichlorophenyl)carbonyl]amino}-2-(methoxymethyl)-1H-benzimidazole-4-carboxamide hydrochloride]
- IC50 (human mPGES-1): 3.7 nM
- IC50 (A549 cells): 18.9 nM

Structure (SMILES): Cc1c(Cl)cccc1NC(=O)c1cc(NC(=O)c2ccccc2C(F)(F)F)cc2[nH]c(CC(=O)N(C)C)nc12 [Example 133, N-(3-Chloro-2-methylphenyl)-2-[2-(dimethylamino)-2-oxoethyl]-6-({[2-(trifluoromethyl)phenyl]carbonyl}amino)-1H-benzimidazole-4-carboxamide hydrochloride]
- IC50 (human mPGES-1): 7 nM
- IC50 (A549 cells): 488 nM

Structure (SMILES): Cc1ccc(NC(=O)c2cc(NC(=O)c3ccccc3C(F)(F)F)cc3[nH]c(N(C)C)nc23)cc1Cl [Example 202, N-(3-Chloro-4-methylphenyl)-2-(dimethylamino)-6-({[2-(trifluoromethyl)phenyl]carbonyl}amino)-1H-benzimidazole-4-carboxamide hydrochloride]
- IC50 (human mPGES-1): 4.9 nM
- IC50 (A549 cells): 5.9 nM

Structure (SMILES): COCCCNc1nc2c(C(=O)Nc3cccc(Cl)c3C)cc(NC(=O)c3ccccc3C(F)(F)F)cc2[nH]1 [Example 174, N-(3-Chloro-2-methylphenyl)-2-[(3-methoxypropyl)amino]-6-({[2-(trifluoromethyl)phenyl]carbonyl}amino)-1H-benzimidazole-4-carboxamide hydrochloride]
- IC50 (human mPGES-1): 2 nM
- IC50 (A549 cells): 117 nM

Structure (SMILES): Cc1c(Cl)cccc1NC(=O)c1cc(NC(=O)c2ccccc2C(F)(F)F)cc2[nH]c(N)nc12 [Example 157, 2-Amino-N-(3-chloro-2-methylphenyl)-6-({[2-(trifluoromethyl)phenyl]carbonyl}amino)-1H-benzimidazole-4-carboxamide hydrochloride]
- IC50 (human mPGES-1): 3.9 nM
- IC50 (A549 cells): 10900 nM

Structure (SMILES): COCc1nc2c(C(=O)Nc3cccc(Cl)c3C)cc(NC(=O)c3ccccc3Cl)cc2[nH]1 [Example 95, N-(3-Chloro-2-methylphenyl)-6-{[(2-chlorophenyl)carbonyl]amino}-2-(methoxymethyl)-1H-benzimidazole-4-carboxamide hydrochloride]
- IC50 (human mPGES-1): 5.1 nM
- IC50 (A549 cells): 105 nM

Structure (SMILES): Cc1ccc(NC(=O)c2cc(NC(=O)c3cc(Cl)ccc3Cl)cc3[nH]c(C4CC4)nc23)cc1Cl [Example 209, N-(3-Chloro-4-methylphenyl)-2-cyclopropyl-6-{[(2,5-dichlorophenyl)carbonyl]amino}-1H-benzimidazole-4-carboxamide hydrochloride]
- IC50 (human mPGES-1): 1 nM
- IC50 (A549 cells): 10.3 nM

Structure (SMILES): Cc1c(Cl)cccc1NC(=O)c1cc(NC(=O)c2ccccc2C(F)(F)F)cc2[nH]c(N[C@H](CO)C(C)C)nc12 [Example 170, N-(3-Chloro-2-methylphenyl)-2-{[(2S)-1-hydroxy-3-methylbutan-2-yl]amino}-6-({[2-(trifluoromethyl)phenyl]carbonyl}amino-1H-benzimidazole-4-carboxamide hydrochloride]
- IC50 (human mPGES-1): 3.2 nM
- IC50 (A549 cells): 17.8 nM

Structure (SMILES): COCc1nc2c(C(=O)Nc3c(C)cccc3Cl)cc(NC(=O)c3ccccc3C(F)(F)F)cc2[nH]1 [Example 43, N-(2-Chloro-6-methylphenyl)-2-(methoxymethyl)-6-({[2-(trifluoromethyl)phenyl]carbonyl}amino)-1H-benzimidazole-4-carboxamide hydrochloride]
- IC50 (human mPGES-1): 70.7 nM
- IC50 (A549 cells): 438 nM

Structure (SMILES): COCc1nc2c(C(=O)Nc3cccc(Cl)c3C)cc(NC(=O)c3cc(CCCOC(C)(C)C)ccc3Cl)cc2[nH]1 [Example 118, 6-({[5-(3-tert-Butoxypropyl)-2-chlorophenyl]carbonyl}amino)-N-(3-chloro-2-methylphenyl)-2-(methoxymethyl)-1H-benzimidazole-4-carboxamide hydrochloride]
- IC50 (human mPGES-1): 7.3 nM
- IC50 (A549 cells): 5.3 nM

Structure (SMILES): COCc1nc2c(C(=O)Nc3cccc(Cl)c3C)cc(NC(=O)c3cc(C)ccc3Cl)cc2[nH]1 [Example 108, N-(3-Chloro-2-methylphenyl)-6-{[(2-chloro-5-methylphenyl)carbonyl]amino}-2-(methoxymethyl)-1H-benzimidazole-4-carboxamide hydrochloride]
- IC50 (human mPGES-1): 11.5 nM
- IC50 (A549 cells): 87.9 nM

Structure (SMILES): COCc1nc2c(C(=O)Nc3cccc(Cl)c3C)cc(NC(=O)c3cc(Cl)ccc3Br)cc2[nH]1 [Example 107, 6-{[(2-Bromo-5-chlorophenyl)carbonyl]amino}-N-(3-chloro-2-methylphenyl)-2-(methoxymethyl)-1H-benzimidazole-4-carboxamide hydrochloride]
- IC50 (human mPGES-1): 1.5 nM
- IC50 (A549 cells): 42 nM

Structure (SMILES): Cc1nc2c(C(=O)Nc3cccc(Cl)c3C)cc(NC(=O)c3ccccc3C(F)(F)F)cc2o1 [Example 52, N-(3-Chloro-2-methylphenyl)-2-methyl-6-({[2-(trifluoromethyl)phenyl]carbonyl}amino)-1,3-benzoxazole-4-carboxamide]
- IC50 (human mPGES-1): 40.2 nM
- IC50 (A549 cells): 281 nM

Structure (SMILES): Cc1c(Cl)cccc1NC(=O)c1cc(NC(=O)c2ccccc2C(F)(F)F)cc2[nH]c(N3CCCC3)nc12 [Example 164, N-(3-Chloro-2-methylphenyl)-2-(pyrrolidin-1-yl)-6-({[2-(trifluoromethyl)phenyl]carbonyl}amino)-1H-benzimidazole-4-carb oxamide hydrochloride]
- IC50 (human mPGES-1): 0.3 nM
- IC50 (A549 cells): 13.3 nM

Structure (SMILES): O=C(Nc1cc(C(=O)NCc2ccccc2C(F)(F)F)c2nc([C@H]3CCCO3)[nH]c2c1)c1ccccc1C(F)(F)F [Example 65, 2-[(2R)-Tetrahydrofuran-2-yl]-N-[2-(trifluoromethyl)benzyl]-6-({[2-(trifluoromethyl)phenyl]carbonyl}amino)-1H-benzimidazole-4-carboxamide]
- IC50 (human mPGES-1): 9.6 nM
- IC50 (A549 cells): 72.2 nM

Structure (SMILES): Cc1c(Cl)cccc1NC(=O)c1cc(NC(=O)c2ccccc2C(F)(F)F)cc2[nH]c(N[C@@H](CO)C(C)C)nc12 [Example 171, N-(3-Chloro-2-methylphenyl)-2-{[(2R)-1-hydroxy-3-methylbutan-2-yl]amino}-6-({[2-(trifluoromethyl)phenyl]carbonyl}amino-1H-benzimidazole-4-carboxamide hydrochloride]
- IC50 (human mPGES-1): 4.7 nM
- IC50 (A549 cells): 97.8 nM

Structure (SMILES): COCc1nc2c(C(=O)Nc3cccc(Cl)c3C)cc(NC(=O)c3c(F)cccc3Br)cc2[nH]1 [Example 103, 6-{[(2-Bromo-6-fluorophenyl)carbonyl]amino}-N-(3-chloro-2-methylphenyl)-2-(methoxymethyl)-1H-benzimidazole-4-carboxamide hydrochloride]
- IC50 (human mPGES-1): 2.8 nM
- IC50 (A549 cells): 59.6 nM

Structure (SMILES): COCc1nc2c(C(=O)Nc3cccc(Cl)c3C)cc(NC(=O)c3cc(OCCOC(C)C)ccc3Cl)cc2[nH]1 [Example 114, N-(3-Chloro-2-methylphenyl)-6-[({2-chloro-5-[2-(propan-2-yloxy)ethoxy]phenyl}carbonyl)amino]-2-(methoxymethyl)-1H-benzimidazole-4-carboxamide hydrochloride]
- IC50 (human mPGES-1): 3.5 nM
- IC50 (A549 cells): 8.8 nM

Structure (SMILES): NC(=O)Cc1nc2c(C(=O)NCc3ccccc3C(F)(F)F)cc(NC(=O)c3ccccc3C(F)(F)F)cc2[nH]1 [Example 45, 2-(2-Amino-2-oxoethyl)-N-[2-(trifluoromethyl)benzyl]-6-({[2-(trifluoromethyl)phenyl]carbonyl}amino)-1H-benzimidazole-4-carboxamide hydrochloride]
- IC50 (human mPGES-1): 4.9 nM
- IC50 (A549 cells): 2080 nM

Structure (SMILES): CNC(=O)Cc1nc2c(C(=O)Nc3cccc(Cl)c3C)cc(NC(=O)c3ccccc3C(F)(F)F)cc2[nH]1 [Example 134, N-(3-Chloro-2-methylphenyl)-2-[2-(methylamino)-2-oxoethyl]-6-({[2-(trifluoromethyl)phenyl]carbonyl}amino)-1H-benzimidazole-4-carboxamide hydrochloride]
- IC50 (human mPGES-1): 10.3 nM
- IC50 (A549 cells): 921 nM

Structure (SMILES): COCc1nc2c(C(=O)NCC3CCCCC3)cc(NC(=O)c3ccccc3C(F)(F)F)cc2[nH]1 [Example 218, N-(Cyclohexylmethyl)-2-(methoxymethyl)-6-({[2-(trifluoromethyl)phenyl]carbonyl}amino)-1H-benzimidazole-4-carboxamide hydrochloride]
- IC50 (human mPGES-1): 5.3 nM
- IC50 (A549 cells): 42.8 nM

Structure (SMILES): Cc1c(Cl)cccc1NC(=O)c1cc(NC(=O)c2ccccc2C(F)(F)F)cc2[nH]c(NC[C@@H]3CCCO3)nc12 [Example 168, N-(3-Chloro-2-methylphenyl)-2-{[(2S)-tetrahydrofuran-2-ylmethyl]amino}-6-({[2-(trifluoromethyl)phenyl]carbonyl}amino)-1H-benzimidazole-4-carboxamide hydrochloride]
- IC50 (human mPGES-1): 3.2 nM
- IC50 (A549 cells): 23.9 nM

Structure (SMILES): CCn1cnc2c(C(=O)NC3CCCCC3)cc(NC(=O)c3ccccc3C(F)(F)F)cc21 [Example 50, N-Cyclohexyl-1-ethyl-6-({[2-(trifluoromethyl)phenyl]carbonyl}amino)-1H-benzimidazole-4-carboxamide]
- IC50 (human mPGES-1): 140 nM
- IC50 (A549 cells): 810 nM

Source: patent US9216968B2, “Heterocyclic derivative and pharmaceutical drug” (NIPPON SHINYAKU CO., LTD., priority 2011, dated 2015)
